The target in this assay is T1, myeloperoxidase (MPO) (Homo sapiens, UniProt P05164).
T1 sequence (P05164 49-745): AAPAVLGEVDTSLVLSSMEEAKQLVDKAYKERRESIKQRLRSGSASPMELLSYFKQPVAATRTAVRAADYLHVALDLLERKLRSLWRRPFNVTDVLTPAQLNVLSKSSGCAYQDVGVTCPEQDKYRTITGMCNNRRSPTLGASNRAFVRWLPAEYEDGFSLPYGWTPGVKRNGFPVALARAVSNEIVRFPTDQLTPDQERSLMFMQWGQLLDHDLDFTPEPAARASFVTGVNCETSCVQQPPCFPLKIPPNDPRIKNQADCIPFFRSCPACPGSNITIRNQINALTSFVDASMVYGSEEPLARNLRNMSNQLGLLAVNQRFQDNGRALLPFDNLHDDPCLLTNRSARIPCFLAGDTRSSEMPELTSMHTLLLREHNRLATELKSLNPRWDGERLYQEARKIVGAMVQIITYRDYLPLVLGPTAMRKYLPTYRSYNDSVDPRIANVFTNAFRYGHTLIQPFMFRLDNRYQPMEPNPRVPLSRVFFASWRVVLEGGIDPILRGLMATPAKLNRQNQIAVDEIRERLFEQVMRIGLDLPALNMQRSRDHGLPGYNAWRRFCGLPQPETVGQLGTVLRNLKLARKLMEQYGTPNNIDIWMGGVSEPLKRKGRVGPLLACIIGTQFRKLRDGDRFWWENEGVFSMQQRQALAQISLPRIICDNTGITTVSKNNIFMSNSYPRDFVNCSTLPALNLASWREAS
Briefly: MPO peroxidation assay (Amplex Red assay). Type of assay: biochemical. Particulars: MPO peroxidation (Amplex Red), ranges given; read-out: MPO peroxidation assay IC50 values (binned). The procedure: MPO Peroxidation Assay (Amplex Red Assay)
MPO peroxidation activity was measured in 100 mM KPi (pH 7.4) by utilizing the non-fluorescent reagent Amplex Red (Invitrogen Cat. #A12222) which can be oxidized to the highly fluorescent resorufin. Amplex Red is oxidized by the peroxidase action of MPO to resorufin. […] Enzyme and compound were preincubated for ten minutes at room temperature.
After the ten minute preincubation, 25 μL of an Amplex Red mixture containing 200 μM Amplex Red and 10 mM H2O2 was added to the plate.
IC50 values were calculated by determining the slope of the linear portion of the kinetic trace (180-540 secs), and using that calculated slope to determine % inhibition occurring at each concentration of inhibitor using the following equation:
[formula] where A=minimal Y value (activity level of inhibited sample), B=maximal Y value (activity level of uninhibited sample), C=Log IC50, D=Hill Slope, x=concentration of inhibitor. MPO Chlorination Assay (APF Assay)

The results in this text go back to patent US9920075B2, “Triazolopyridine and triazolopyrimidine inhibitors of myeloperoxidase” (BRISTOL-MYERS SQUIBB COMPANY, priority 2014, dated 2018).

Each structure is given as a SMILES string.

A word on the IC50: it is the point on the concentration scale where inhibition reaches its midpoint. Consider `Nc1cc(OCc2ncc(Br)cc2F)c2nn[nH]c2n1` [Example 87, 7-((5-Bromo-3-fluoropyridin-2-yl)methoxy)-3H-[1,2,3]triazolo[4,5-b]pyridin-5-amine], for which the IC50 was at most 60 nM. Take `Nc1cc(OCc2cc(Cl)ncc2F)c2nn[nH]c2n1` [Example 88, 7-((2-Chloro-5-fluoropyridin-4-yl)methoxy)-3H-[1,2,3]triazolo[4,5-b]pyridin-5-amine]: the IC50 was 60 to 150 nM. To `Nc1cc(OCc2ncccc2F)c2nn[nH]c2n1` [Example 89, 7-((3-Fluoropyridin-2-yl)methoxy)-3H-[1,2,3]triazolo[4,5-b]pyridin-5-amine] belongs at most 60 nM; to `Nc1cc(OCc2cnccc2Cl)c2nn[nH]c2n1` [Example 91, 7-((4-Chloropyridin-3-yl)methoxy)-3H-[1,2,3]triazolo[4,5-b]pyridin-5-amine], 60 to 150 nM; to `Nc1cc(OCc2ccc(Br)cn2)c2nn[nH]c2n1` [Example 92, 7-((5-Bromopyridin-2-yl)methoxy)-3H-[1,2,3]triazolo[4,5-b]pyridin-5-amine], 60 to 150 nM. Under `Cn1nc(COc2cc(N)nc3[nH]nnc23)cc1Br` [Example 93, 7-((5-Bromo-1-methyl-1H-pyrazol-3-yl)methoxy)-3H-[1,2,3]triazolo[4,5-b]pyridin-5-amine] stands at most 60 nM; under `Nc1cc(OCc2nc(Br)ccc2F)c2nn[nH]c2n1` [Example 95, 7-((6-Bromo-3-fluoropyridin-2-yl)methoxy)-3H-[1,2,3]triazolo[4,5-b]pyridin-5-amine], at most 60 nM; under `Cn1ccc(-c2ccc(F)c(COc3cc(N)nc4[nH]nnc34)n2)n1` [Example 96, 7-((3-Fluoro-6-(1-methyl-1H-pyrazol-3-yl)pyridin-2-yl)methoxy)-3H-[1,2,3]triazolo[4,5-b]pyridin-5-amine], at most 60 nM. Under `Nc1cc(OCc2nc(-c3ccc(N4CCNCC4)nc3)ccc2F)c2nn[nH]c2n1` [Example 97, 7-((5-fluoro-6′-(piperazin-1-yl)-[2,3′-bipyridin]-6-yl)methoxy)-3H-[1,2,3] triazolo[4,5-b]pyridin-5-amine] stands at most 60 nM; under `Nc1cc(OCc2nc(-c3ccc(C4CC4)nc3)ccc2F)c2nn[nH]c2n1` [Example 98, 7-((6′-cyclopropyl-S-fluoro-[2,3′-bipyridin]-6-yl)methoxy)-3H-[1,2,3]triazolo[4,5-b] pyridin-5-amine], at most 60 nM.

Regarding `Nc1cc(OCc2ncc(-c3ccc(N4CCNCC4)nc3)cc2F)c2nn[nH]c2n1` [Example 99, 7-((5-fluoro-6′-(piperazin-1-yl)-[3,3′-bipyridin]-6-yl)methoxy)-3H-[1,2,3] triazolo[4,5-b]pyridin-5-amine], the IC50 is at most 60 nM. To `Nc1cc(OCc2ncc(-c3ccc(C4CC4)nc3)cc2F)c2nn[nH]c2n1` [Example 101, 7-((6′-cyclopropyl-5-fluoro-[3,3′-bipyridin]-6-yl)methoxy)-3H-[1,2,3]triazolo[4,5-b] pyridin-5-amine] belongs at most 60 nM.

On to `Cn1nc(COc2cc(N)nc3[nH]nnc23)cc1-c1ccc(CO)nc1` [Example 103, (5-(3-(((5-amino-3H-[1,2,3]triazolo[4,5-b]pyridin-7-yl)oxy)methyl)-1-methyl-1H-pyrazol-5-yl)pyridin-2-yl)methanol], for which the IC50 is 60 to 150 nM. Regarding `Cn1nc(COc2cc(N)nc3[nH]nnc23)cc1-c1ccc(N2CCNCC2)nc1` [Example 104, 7-((1-methyl-5-(6-(piperazin-1-yl)pyridin-3-yl)-1H-pyrazol-3-yl)methoxy)-3H-[1,2,3]triazolo[4,5-b]pyridin-5-amine], the IC50 is at most 60 nM.

Turning to `CN1CCN(c2ccc(-c3cc(COc4cc(N)nc5[nH]nnc45)nn3C)cn2)CC1` [Example 105, 7-((1-methyl-5-(6-(4-methylpiperazin-1-yl)pyridin-3-yl)-1H-pyrazol-3-yl)methoxy)-3H-[1,2,3]triazolo[4,5-b]pyridin-5-amine], the IC50 was at most 60 nM.
